Test results from patent US7252936B2 (priority 1994, dated 2007).

Key:
[1] = system: M. tuberculosis strains with Aspartic acid 516 changed into Valine or Tyrosine; type: cell-based
[2] = system: M. tuberculosis; assay: microbe, parasite or virus in culture; type: cell-based; conditions: Mycobacterium tuberculosis, read-out: MIC (Minimal Inhibitory Concentration)

Structure (SMILES)	Resistance or sensitivity of strains with the mutation [1]	MIC [2] [µg/mL]
CO[C@H]1/C=C/O[C@@]2(C)Oc3c(C)c(O)c4c(c3C2=O)C2=NC3(CCN(CC(C)C)CC3)NC2=C(NC(=O)/C(C)=C\C=C\[C@H](C)[C@H](O)[C@@H](C)[C@@H](O)[C@@H](C)[C@H](OC(C)=O)[C@@H]1C)C4=O [rifabutin]	sensitivity to rifabutin is maintained	–
CO[C@H]1/C=C/O[C@@]2(C)Oc3c(C)c(O)c4c(O)c(c(/C=N/N5CCN(C)CC5)c(O)c4c3C2=O)NC(=O)/C(C)=C\C=C\[C@H](C)[C@H](O)[C@@H](C)[C@@H](O)[C@@H](C)[C@H](OC(C)=O)[C@@H]1C [rifampicin]	–	> 2
